Experimental data from US12139520B2 (priority 2020, dated 2024).
Bridge positions count the residues as written; N and C are the ends. Square brackets hold non-standard residues; d marks the D form. Peptide text beside a SMILES is read from it. Hyp = O=C(O)[C@@H]1C[C@@H](O)CN1; Cit = NC(=O)NCCC[C@H](N)C(=O)O

Tests used:
[1] = Physical stability of peptide analogues (Thioflavin T fibrillation); assay type: physicochemical; settings: maximum ThT signal normalized between hAMY maximum and buffer background; 40° C., shaking, four days; pH 7 per table title
Outline: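 Samples are stressed at 40 °C for four days, being shaken at 700 rpm before each 10-min fluorescence reading of 4 μM Thioflavin T. Buffers were pH 4 acetate or pH 7 phosphate. Reported values are smoothed maximum ThT signals as a percentage of the hAMY-to-background range.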

[2] = molecular target: T1, hAMY3 receptor (Homo sapiens, UniProt O60896+P30988); test: cAMP assay for in vitro receptor activation, hAMY3-R; assay type: cell-based; settings: cAMP assay, hAMY3 receptor; read-out: hAMY3R EC50
T1 sequence (P30988 25-474): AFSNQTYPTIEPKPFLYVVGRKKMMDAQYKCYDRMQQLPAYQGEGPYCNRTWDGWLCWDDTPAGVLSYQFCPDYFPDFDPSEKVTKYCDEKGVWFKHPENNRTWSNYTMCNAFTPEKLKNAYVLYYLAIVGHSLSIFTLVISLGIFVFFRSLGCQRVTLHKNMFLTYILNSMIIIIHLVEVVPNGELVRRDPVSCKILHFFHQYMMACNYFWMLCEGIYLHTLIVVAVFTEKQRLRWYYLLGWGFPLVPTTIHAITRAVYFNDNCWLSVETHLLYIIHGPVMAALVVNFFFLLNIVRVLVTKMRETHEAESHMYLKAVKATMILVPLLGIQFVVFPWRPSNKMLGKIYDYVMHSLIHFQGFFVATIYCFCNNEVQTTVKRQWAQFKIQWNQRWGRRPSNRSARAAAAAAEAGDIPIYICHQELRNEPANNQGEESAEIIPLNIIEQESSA
T1 sequence (O60896 24-148 partner): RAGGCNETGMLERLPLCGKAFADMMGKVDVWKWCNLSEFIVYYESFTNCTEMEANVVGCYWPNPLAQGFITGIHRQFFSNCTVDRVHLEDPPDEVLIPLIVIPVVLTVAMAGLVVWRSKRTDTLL
Outline: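 Thawed cells from a sub-cloned monoclonal hAMY3-overexpressing line are plated in DPBS containing 0.05% casein and 0.5 mM IBMX. Test compounds are added immediately at graded doses for 30 min at room temperature. Reagents for cAMP detection are then added, and TR-FRET is recorded after one hour.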

Max ThT signal (%) [1] | EC50 [2] | SMILES
34.100% | 0.011 nM | CC[C@H](C)[C@H](NC(=O)[C@H](CC(N)=O)NC(=O)[C@@H](NC(=O)[C@H](CCCNC(=N)N)NC(=O)[C@@H]1CCCN1C(=O)[C@H](C)NC(=O)[C@@H](NC(=O)[C@H](CC(N)=O)NC(=O)[C@H](CC(=O)O)NC(=O)[C@H](CCCCN)NC(=O)[C@H](CC(=O)O)NC(=O)[C@H](CCCCN)NC(=O)[C@H](CC(=O)O)NC(=O)[C@@H](NC(=O)[C@H](Cc1ccccc1)NC(=O)[C@H](CCC(N)=O)NC(=O)[C@H](Cc1ccc(O)cc1)NC(=O)[C@@H](NC(=O)[C@H](CCC(N)=O)NC(=O)[C@H](Cc1c[nH]cn1)NC(=O)[C@H](C)NC(=O)[C@H](CC(C)C)NC(=O)[C@H](CCCNC(N)=O)NC(=O)[C@H](CCC(N)=O)NC(=O)[C@@H](NC(=O)[C@@H](NC(=O)[C@@H]1CSSC[C@H](NC(=O)CN)C(=O)N[C@@H](CCCNC(=N)N)C(=O)N[C@@H](Cc2ccccc2)C(=O)NCC(=O)N[C@@H]([C@@H](C)O)C(=O)N1)[C@@H](C)O)C(C)C)[C@@H](C)CC)[C@@H](C)O)C(C)C)[C@@H](C)O)C(=O)NCC(=O)N1CCC[C@H]1C(=O)N[C@@H](CCC(N)=O)C(=O)NCC(=O)N1C[C@H](O)C[C@H]1C(N)=O [compound 260] (H-GCRFGTCTVQ[Cit]LAHQIYQFTDKDKDNVAPRTNIGPQG[Hyp]-NH2; disulfide 2-7; N-terminus assumed)
2.900% | 0.025 nM | CC[C@H](C)[C@H](NC(=O)[C@H](CCC(N)=O)NC(=O)[C@H](Cc1c[nH]cn1)NC(=O)[C@H](C)NC(=O)[C@H](CC(C)C)NC(=O)[C@H](CCCNC(N)=O)NC(=O)[C@H](CCC(N)=O)NC(=O)[C@@H](NC(=O)[C@@H](NC(=O)[C@@H]1CSSC[C@H](NC(=O)CN)C(=O)N[C@@H](CCCNC(=N)N)C(=O)N[C@@H](Cc2ccccc2)C(=O)NCC(=O)N[C@@H]([C@@H](C)O)C(=O)N1)[C@@H](C)O)C(C)C)C(=O)N[C@@H](Cc1ccc(O)cc1)C(=O)N[C@@H](CCC(N)=O)C(=O)N[C@@H](Cc1ccccc1)C(=O)N[C@H](C(=O)N[C@@H](CC(=O)O)C(=O)N[C@@H](CCCCN)C(=O)N[C@@H](CC(=O)O)C(=O)N[C@@H](CCCCN)C(=O)N[C@@H](CC(=O)O)C(=O)N[C@@H](CC(N)=O)C(=O)N[C@H](C(=O)N[C@@H](C)C(=O)N1CCC[C@H]1C(=O)N[C@@H](CCCNC(=N)N)C(=O)N[C@@H](CO)C(=O)N[C@@H](CC(N)=O)C(=O)N[C@H](C(=O)N[C@@H](CO)C(=O)N1CCC[C@H]1C(=O)N[C@@H](CCC(N)=O)C(=O)NCC(=O)N[C@@H](Cc1ccc(O)cc1)C(N)=O)C(C)C)C(C)C)[C@@H](C)O [compound 286] (H-GCRFGTCTVQ[Cit]LAHQIYQFTDKDKDNVAPRSNVSPQGY-NH2; disulfide 2-7; N-terminus assumed)
6.600% | 0.056 nM | CC[C@H](C)[C@H](NC(=O)[C@H](CCC(N)=O)NC(=O)[C@H](Cc1c[nH]cn1)NC(=O)[C@H](C)NC(=O)[C@H](CC(C)C)NC(=O)[C@H](CCCNC(=N)N)NC(=O)[C@H](CCC(N)=O)NC(=O)[C@@H](NC(=O)[C@@H](NC(=O)[C@@H]1CSSC[C@H](NC(=O)CN)C(=O)N[C@@H](CCCNC(=N)N)C(=O)N[C@@H](Cc2ccccc2)C(=O)NCC(=O)N[C@@H]([C@@H](C)O)C(=O)N1)[C@@H](C)O)C(C)C)C(=O)N[C@@H](Cc1ccc(O)cc1)C(=O)N[C@@H](CCC(N)=O)C(=O)N[C@@H](Cc1ccccc1)C(=O)N[C@H](C(=O)N[C@@H](CC(=O)O)C(=O)N[C@@H](CCCCN)C(=O)N[C@@H](CC(=O)O)C(=O)N[C@@H](CCCCN)C(=O)N[C@@H](CC(=O)O)C(=O)N[C@@H](CC(N)=O)C(=O)N[C@H](C(=O)N[C@@H](C)C(=O)N1CCC[C@H]1C(=O)N[C@@H](CCCNC(=N)N)C(=O)N[C@@H](CO)C(=O)N[C@@H](CCCCN)C(=O)N[C@H](C(=O)N[C@@H](CO)C(=O)N1CCC[C@H]1C(=O)N[C@@H](CCC(N)=O)C(=O)NCC(=O)N1C[C@H](O)C[C@H]1C(N)=O)C(C)C)C(C)C)[C@@H](C)O [compound 167] (H-GCRFGTCTVQRLAHQIYQFTDKDKDNVAPRSKVSPQG[Hyp]-NH2; disulfide 2-7; N-terminus assumed)
14.200% | 0.015 nM | CC[C@H](C)[C@H](NC(=O)[C@H](CCC(N)=O)NC(=O)[C@H](Cc1c[nH]cn1)NC(=O)[C@H](C)NC(=O)[C@H](CC(C)C)NC(=O)[C@H](CCCNC(=N)N)NC(=O)[C@H](CCC(N)=O)NC(=O)[C@@H](NC(=O)[C@@H](NC(=O)[C@@H]1CSSC[C@H](NC(=O)CN)C(=O)N[C@@H](CCCNC(=N)N)C(=O)N[C@@H]([C@@H](C)O)C(=O)NCC(=O)N[C@@H]([C@@H](C)O)C(=O)N1)[C@@H](C)O)C(C)C)C(=O)N[C@@H](Cc1ccc(O)cc1)C(=O)N[C@@H](CCC(N)=O)C(=O)N[C@@H](Cc1ccccc1)C(=O)N[C@H](C(=O)N[C@@H](CC(=O)O)C(=O)N[C@@H](CCCCN)C(=O)N[C@@H](CC(=O)O)C(=O)N[C@@H](CCCCN)C(=O)N[C@@H](CC(=O)O)C(=O)N[C@@H](CC(N)=O)C(=O)N[C@H](C(=O)N[C@@H](C)C(=O)N1CCC[C@H]1C(=O)N[C@@H](CCCNC(=N)N)C(=O)N[C@H](C(=O)N[C@@H](CC(N)=O)C(=O)N[C@H](C(=O)NCC(=O)N1CCC[C@H]1C(=O)N[C@@H](CC(N)=O)C(=O)NCC(=O)N[C@@H](Cc1ccc(O)cc1)C(N)=O)C(C)C)[C@@H](C)O)C(C)C)[C@@H](C)O [compound 84] (H-GCRTGTCTVQRLAHQIYQFTDKDKDNVAPRTNVGPNGY-NH2; disulfide 2-7; N-terminus assumed)
2.700% | 0.157 nM | CC[C@H](C)[C@H](NC(=O)[C@H](CCC(N)=O)NC(=O)[C@H](Cc1c[nH]cn1)NC(=O)[C@H](C)NC(=O)[C@H](CC(C)C)NC(=O)[C@H](CCCNC(=N)N)NC(=O)[C@H](CCC(N)=O)NC(=O)[C@@H](NC(=O)[C@@H](NC(=O)[C@@H]1CSSC[C@H](NC(=O)CN)C(=O)N[C@@H](CCCNC(=N)N)C(=O)N[C@@H]([C@@H](C)O)C(=O)NCC(=O)N[C@@H]([C@@H](C)O)C(=O)N1)[C@@H](C)O)C(C)C)C(=O)N[C@@H](Cc1ccc(O)cc1)C(=O)N[C@@H](CCC(N)=O)C(=O)N[C@@H](Cc1ccccc1)C(=O)N[C@H](C(=O)N[C@@H](CC(=O)O)C(=O)N[C@@H](CCCCN)C(=O)N[C@@H](CC(=O)O)C(=O)N[C@@H](CCCCN)C(=O)N[C@@H](CC(=O)O)C(=O)N[C@@H](CC(N)=O)C(=O)N[C@H](C(=O)N[C@@H](C)C(=O)N1CCC[C@H]1C(=O)N[C@@H](CCCNC(=N)N)C(=O)N[C@H](C(=O)N[C@@H](CC(N)=O)C(=O)N[C@H](C(=O)N[C@@H](CO)C(=O)N1CCC[C@H]1C(=O)N[C@@H](CCC(N)=O)C(=O)NCC(=O)N1C[C@H](O)C[C@H]1C(N)=O)[C@@H](C)CC)[C@@H](C)O)C(C)C)[C@@H](C)O [compound 214] (H-GCRTGTCTVQRLAHQIYQFTDKDKDNVAPRTNISPQG[Hyp]-NH2; disulfide 2-7; N-terminus assumed)
7.400% | 0.024 nM | CC[C@H](C)[C@H](NC(=O)[C@H](CC(N)=O)NC(=O)[C@@H](NC(=O)[C@H](CCCNC(=N)N)NC(=O)[C@@H]1CCCN1C(=O)[C@H](C)NC(=O)[C@@H](NC(=O)[C@H](CC(N)=O)NC(=O)[C@H](CC(=O)O)NC(=O)[C@H](CCCCN)NC(=O)[C@H](CC(=O)O)NC(=O)[C@H](CCCCN)NC(=O)[C@H](CC(=O)O)NC(=O)[C@@H](NC(=O)[C@H](Cc1ccccc1)NC(=O)[C@H](CCC(N)=O)NC(=O)[C@H](Cc1ccc(O)cc1)NC(=O)[C@@H](NC(=O)[C@H](CCC(N)=O)NC(=O)[C@H](Cc1c[nH]cn1)NC(=O)[C@H](C)NC(=O)[C@H](CC(C)C)NC(=O)[C@H](CCCNC(=N)N)NC(=O)[C@H](CCC(N)=O)NC(=O)[C@@H](NC(=O)[C@@H](NC(=O)[C@@H]1CSSC[C@H](NC(=O)CN)C(=O)N[C@@H](CCCNC(=N)N)C(=O)N[C@@H]([C@@H](C)O)C(=O)NCC(=O)N[C@@H]([C@@H](C)O)C(=O)N1)[C@@H](C)O)C(C)C)[C@@H](C)CC)[C@@H](C)O)C(C)C)[C@@H](C)O)C(=O)NCC(=O)N1CCC[C@H]1C(=O)N[C@@H](CCC(N)=O)C(=O)NCC(=O)N1C[C@H](O)C[C@H]1C(N)=O [compound 118] (H-GCRTGTCTVQRLAHQIYQFTDKDKDNVAPRTNIGPQG[Hyp]-NH2; disulfide 2-7; N-terminus assumed)
